Drawing on patent US6372236B1, “Cream composition for skin care” (Doosan Corporation, priority 2000, dated 2002), this text covers therapeutic efficacy for one molecule.

The test system of the experiment is acne. Nature of the experiment: Test on patients suffering from acne. The experiment is classed as in vivo, human.

As for `CCCCCCCCCCCCCC[C@@H](O)[C@@H](O)[C@@H](N)CO` [phytosphingosine], the therapeutic efficacy result was “good therapeutic efficacy”.
